Measured values: patent US20090298814A1, “Novel salts of conjugated psychotropic drugs and processes of preparing same” (RAMOT AT TEL AVIV UNIVERISTY LTD, priority 2005, published 2009)

Columns and labels:
Format in all cases: physicochemical
[1] = Stability of the 1-napsylate salt; details: two weeks
[2] = Stability of AN-168 dry salt by HPLC at 5, 20 and 40° C.
Method: (§1) HPLC analyses were performed on a Water 2695 Separations Module, using a Luna C18 (2) 50 mm×4.6 mm×3 um column, a 5 μl injection volume and a 2487 dual wavelength detector under the following instrumental conditions: Mobile phase A: 0.1% formic acid; Mobile phase B: acetonitrile; Flow rate: 0.5 ml per minute; Mobile phase gradient: 0.0 minutes 90% A, 10% B, 14.0 minutes 20% A, 80% B, 15.0 minutes 90% A, 10% B and 20.0 minutes 90% A, 10% B; Run time: 20 minutes; Detection: UV at 254 nm; Column temperature: 40° C.
To determine the stability of the HCl salt of the GABA conjugate (AN-168), prepared according to the procedure described in Example 2 above, three samples of the salt were studied by HPLC analyses. Thus, samples of AN-168 as dry salt were kept at 5° C., 20° C. and 40° C. over a period of 24 day and were analyzed by HPLC for determining the appearance of degradation products.

[3] = Water content of AN-168 by Karl Fischer (KF) titration
Method: (§2) Water absorption and content measurements were carried out using a Karl Fischer (KF) titrator. Karl Fischer titration is a classic method in analytical chemistry that uses calometric titration to determine the moisture content of a sample, which is specific to water. The titration reaction taking place in the presence of a base and 50:50 methanol:dichloromethane as a titration solvent.
The Karl Fischer chemical reaction takes place between iodine and water with the reactants being in a 1 to 1 ratio between iodine and water.
(§3) The accurately weighted samples (near 100 mg) of the tested compound were placed in the titrator to determine the amount of sample required for measuring 10-250 μg of water, and the water content was calculated accordingly.

[4] = Stability of the free base of the conjugate by HPLC at 20 and 40° C.
Method: as §1
The stability of neat free base of the chemical conjugate was determined by performing an HPLC analysis daily during a period of 24 days and determining the appearance of its degradation products perphenazine and GABA. Samples of the neat free base of the conjugate were collected after deprotection of AN-197 with TFA, as described in the preparation of the maleate and oxalate salts, using the general procedure described above in Example 9, were dissolved in the mobile phase solution which was used in the HPLC analysis (2:1 acetonitrile:water, pH 8) and were kept to either at 20° C. or at 40° C.

[5] = Chemical stability of the oxalate salt by HPLC, open container; details: for perphenazine content (HPLC) / purity of the salt (HPLC): open container at room temperature
Method: as §1
(§4) A sample of the oxalate addition salt was kept in an open container at room temperature for a five-week period (about 840 hours) and analyzed thereafter. The hygroscopicity of the oxalate salt was determined by following the water content of the salt using the Karl Fischer (KF) titration analysis method and the chemical stability of the oxalate salt was determined by following the appearance of the degradation product perphenazine in HPLC analysis.

[6] = Hygroscopicity of the oxalate salt by Karl Fischer titration; details: open container at room temperature
Method: as §2, §3, §4

[7] = sealed and open container at room temperature
[8] = dry salt kept at 5° C., 0 hours
[9] = dry salt kept at 5° C., 24 hours
[10] = dry salt kept at 5° C., 48 hours
[11] = dry salt kept at 5° C., 120 hours
[12] = dry salt kept at 5° C., 144 hours
[13] = dry salt kept at 5° C., 336 hours
[14] = dry salt kept at 5° C., 456 hours
[15] = dry salt kept at 5° C., 504 hours
[16] = dry salt kept at 5° C., 576 hours
[17] = dry salt kept at 20° C., 0 hours
[18] = dry salt kept at 20° C., 24 hours
[19] = dry salt kept at 20° C., 48 hours
[20] = dry salt kept at 20° C., 120 hours
[21] = dry salt kept at 20° C., 144 hours
[22] = dry salt kept at 20° C., 336 hours
[23] = dry salt kept at 20° C., 456 hours
[24] = dry salt kept at 20° C., 504 hours
[25] = dry salt kept at 20° C., 576 hours
[26] = dry salt kept at 40° C., 0 hours
[27] = dry salt kept at 40° C., 24 hours
[28] = dry salt kept at 40° C., 48 hours
[29] = dry salt kept at 40° C., 120 hours
[30] = dry salt kept at 40° C., 144 hours
[31] = dry salt kept at 40° C., 336 hours
[32] = dry salt kept at 40° C., 456 hours
[33] = dry salt kept at 40° C., 504 hours
[34] = dry salt kept at 40° C., 576 hours
[35] = in HPLC mobile phase (2:1 acetonitrile:water, pH 8), kept at 20° C., 0 hours
[36] = in HPLC mobile phase (2:1 acetonitrile:water, pH 8), kept at 40° C., 0 hours
[37] = in HPLC mobile phase, kept at 20° C., 24 hours
[38] = in HPLC mobile phase, kept at 20° C., 168 hours
[39] = in HPLC mobile phase, kept at 20° C., 336 hours
[40] = in HPLC mobile phase, kept at 20° C., 504 hours
[41] = in HPLC mobile phase, kept at 20° C., 576 hours
[42] = in HPLC mobile phase, kept at 40° C., 24 hours
[43] = in HPLC mobile phase, kept at 40° C., 168 hours
[44] = in HPLC mobile phase, kept at 40° C., 336 hours
[45] = in HPLC mobile phase, kept at 40° C., 504 hours
[46] = in HPLC mobile phase, kept at 40° C., 576 hours
[47] = end of five-week period (about 840 hours)

## NCCCC(=O)OCCN1CCN(CCCN2c3ccccc3Sc3ccc(Cl)cc32)CC1.O=S(=O)(O)c1cccc2ccccc12.O=S(=O)(O)c1cccc2ccccc12.O=S(=O)(O)c1cccc2ccccc12 [1-napsylate salt]
[1]; [7]
  degradation to perphenazine: minimal degradation
  stability in words: stable
[1]; stored at both −20° C. and 0° C. under nitrogen in a closed container
  stability in words: highly stable

## Cl.NCCCC(=O)OCCN1CCN(CCCN2c3ccccc3Sc3ccc(Cl)cc32)CC1 [AN-168, Perphenazine 4-Aminobutyrate Hydrochloride]
[2]; [8]
  AN-168 % area: 98.64 % area
  Perphenazine % area: 1.36 % area
[2]; [9]
  AN-168 % area: 98.57 % area
  Perphenazine % area: 1.43 % area
[2]; [10]
  AN-168 % area: 98.52 % area
  Perphenazine % area: 1.48 % area
[2]; [11]
  AN-168 % area: 98.40 % area
  Perphenazine % area: 1.60 % area
[2]; [12]
  AN-168 % area: 98.13 % area
  Perphenazine % area: 1.87 % area
[2]; [13]
  AN-168 % area: 97.21 % area
  Perphenazine % area: 2.03 % area
[2]; [14]
  AN-168 % area: 97.95 % area
  Perphenazine % area: 2.05 % area
[2]; [15]
  AN-168 % area: 97.15 % area
  Perphenazine % area: 2.85 % area
[2]; [16]
  AN-168 % area: 96.14 % area
  Perphenazine % area: 3.49 % area
[2]; [17]
  AN-168 % area: 98.64 % area
  Perphenazine % area: 1.36 % area
[2]; [18]
  AN-168 % area: 98.42 % area
  Perphenazine % area: 1.58 % area
[2]; [19]
  AN-168 % area: 98.31 % area
  Perphenazine % area: 1.69 % area
[2]; [20]
  AN-168 % area: 97.68 % area
  Perphenazine % area: 2.32 % area
[2]; [21]
  AN-168 % area: 97.26 % area
  Perphenazine % area: 2.74 % area
[2]; [22]
  AN-168 % area: 96.26 % area
  Perphenazine % area: 3.74 % area
[2]; [23]
  AN-168 % area: 95.58 % area
  Perphenazine % area: 4.51 % area
[2]; [24]
  AN-168 % area: 94.60 % area
  Perphenazine % area: 5.40 % area
[2]; [25]
  AN-168 % area: 93.80 % area
  Perphenazine % area: 5.87 % area
[2]; [26]
  AN-168 % area: 98.64 % area
  Perphenazine % area: 1.36 % area
[2]; [27]
  AN-168 % area: 97.97 % area
  Perphenazine % area: 2.03 % area
[2]; [28]
  AN-168 % area: 97.70 % area
  Perphenazine % area: 2.30 % area
[2]; [29]
  AN-168 % area: 96.95 % area
  Perphenazine % area: 3.05 % area
[2]; [30]
  AN-168 % area: 97.03 % area
  Perphenazine % area: 2.97 % area
[2]; [31]
  AN-168 % area: 96.69 % area
  Perphenazine % area: 3.31 % area
[2]; [32]
  AN-168 % area: 95.55 % area
  Perphenazine % area: 4.45 % area
[2]; [33]
  AN-168 % area: 95.62 % area
  Perphenazine % area: 3.92 % area
[2]; [34]
  AN-168 % area: 95.55 % area
  Perphenazine % area: 4.06 % area
[2]; over time, at each of the tested temperatures (5, 20, 40° C.)
  stability in words: degraded into perphenazine and GABA and/or underwent trans-esterification to perphenazine and 2-pyrrolidinone
[3]; final product
  hygroscopicity: hygroscopic
[3]; final product, recrystallized
  water content (KF): 1.05 % weight/weight
[3]; repeated procedure with additional 2 hours at 40° C.
  water content (KF): 12.5 % weight/weight

## NCCCC(=O)OCCN1CCN(CCCN2c3ccccc3Sc3ccc(Cl)cc32)CC1 [Free base]
[4]; at both temperatures (20° C. and 40° C.)
  stability in words: highly unstable
[4]; first 24 hours, sample kept at 20° C.
  relative peak area degradation to perphenazine: approximately 5%
[4]; first 24 hours, sample kept at 40° C.
  free base degraded to perphenazine: more than 20%
[4]; [35]
  Free base % area: 98.50 % area
  Perphenazine % area: 1.50 % area
[4]; [36]
  Free base % area: 98.50 % area
  Perphenazine % area: 1.50 % area
[4]; [37]
  Free base % area: 95.05 % area
  Perphenazine % area: 4.95 % area
[4]; [38]
  Free base % area: 74.71 % area
  Perphenazine % area: 25.29 % area
[4]; [39]
  Free base % area: 61.63 % area
  Perphenazine % area: 38.37 % area
[4]; [40]
  Free base % area: 53.35 % area
  Perphenazine % area: 46.65 % area
[4]; [41]
  Free base % area: 47.23 % area
  Perphenazine % area: 52.77 % area
[4]; [42]
  Free base % area: 78.74 % area
  Perphenazine % area: 21.26 % area
[4]; [43]
  Free base % area: 20.09 % area
  Perphenazine % area: 79.91 % area
[4]; [44]
  Free base % area: 6.12 % area
  Perphenazine % area: 93.88 % area
[4]; [45]
  Free base % area: 5.52 % area
  Perphenazine % area: 94.48 % area
[4]; [46]
  Free base % area: 3.93 % area
  Perphenazine % area: 96.07 % area

## NCCCC(=O)OCCN1CCN(CCCN2c3ccccc3Sc3ccc(Cl)cc32)CC1.O=C(O)C(=O)O.O=C(O)C(=O)O.O=C(O)C(=O)O [oxalate addition salt]
[5]; as compared to the HCl salt (AN-168)
  stability and hygroscopicity in words: more stable and less hygroscopic
[5]; [47]
  perphenazine content (HPLC): 1.71%
  purity of the salt (HPLC): 94.61%
[5]; initial
  perphenazine content (HPLC): 0.75%
  purity of the salt (HPLC): 98.05%
[6]; [47]
  water content (KF): 1.90 weight percents
[6]; initial
  water content (KF): 1.36 weight percents
